Data as given in paper PMC11274883, “Anticancer Effect of Pt^[sequence], Pt^II5MESS, Pt^II56MESS and Their Platinum(IV)-Dihydroxy Derivatives against Triple-Negative Breast Cancer and Cisplatin-Resistant Colorectal Cancer” (Cancers, 2024).

Columns and labels:
Format in all cases: cell-based
HT29 cells [1] = test: DCFDA cellular ROS detection assay; conditions: complexes at IC50, TBHP 20 µM
Procedure, shortened: (§1)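 Cells seeded at 2500 cells/well overnight, then loaded with 25 µM DCFH-DA for 45 min. DCF fluorescence (ex/em 485/535 nm, RFU) read at multiple time points; 20 µM TBHP served as positive control. Three independent experiments in triplicate.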

MDA−MB−231 cells [2] = test: DCFDA cellular ROS detection assay; conditions: complexes at IC50, TBHP 20 µM
Procedure, shortened: as §1

HT29 cells [3] = test: TMRE mitochondrial membrane potential assay; conditions: complexes at IC50, FCCP 20 µM
Procedure, shortened: (§2)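 Cells treated with each complex at its IC50 concentration for 24, 48 or 72 h, then stained with 1 µM TMRE for 30 min and washed before fluorescence scanning. Three independent experiments in triplicate.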

MDA−MB−231 cells [4] = test: TMRE mitochondrial membrane potential assay; conditions: complexes at IC50, FCCP 20 µM
Procedure, shortened: as §2

HT29 cells [5] = test: Western blot protein expression; conditions: HT29, IC50, 72 h
Experimental: (§3) Protein extraction was then performed on ice. Media were collected in Eppendorf tubes, and centrifuged at 500× g for 5 min at 4 °C. Meanwhile, 200 µL of lysis RIPA buffer, made up of 150 mM NaCl, 50 mM Tris-HCl, pH 8.0, 0.1% Triton X-100, 0.5% sodium deoxycholate, 0.1% SDS and 1 mM sodium orthovanadate, was added to each well, the cells were scrapped into the buffer, and added to the media-derived pellets. The tubes were placed on the shaker for 10 min at 4 °C. Then, cell extracts were centrifuged at 12,000× g for 15 min at 4 °C, and the supernatants (containing the proteins) were collected. The Bio-Rad-DC protein assay (Bio-Rad, Hercules, CA, USA) was used to assess protein content. Laemmli protein sample buffer (4×) with β-mercaptoethanol (9%) was used to prepare a final protein concentration of 20 µg. The samples were then heated at 100 °C for 5 min. A final volume of 30 µL of each sample was added per well and subjected to SDS-PAGE using Bolt 4–12% Bis-Tris gel (Thermo Fisher, Eugene, OR, USA) at 80 V for 30 min and then 120 V for 60 min with PageRuler™ Prestained Protein or SeeBlue Prestained Protein Ladder (Thermo Fisher, Eugene, OR, USA). Proteins were subsequently transferred to a 0.2 µm PVDF membrane (Amersham, Cytiya) using a semi-dry blot transfer. The membrane was then blocked in 5% BSA in TBST, for 1 h and probed overnight at 4 °C with primary antibodies against several cell proliferation, apoptotic, anti-apoptotic, microtubule and autophagic protein markers listed in Table S7 as per the manufacturer’s protocol. The primary antibody was then removed, washed three times for 10 min with TBST and then membranes were treated with either mouse or rabbit HRP-coupled secondary antibodies (1/3000) for 1 h and 30 min. Protein band detection was then performed using the chemiluminescence ECL kit (Thermo Fisher, Eugene, OR, USA). Blot images were obtained using the Odyssey® FC imaging system (LI-COR Biosciences, Lincoln, NE, USA) and band intensities were quantified relatively to glyceraldehyde-3-phosphate dehydrogenase (GAPDH) and then normalised each replicate gel to its corresponding no treatment control using the ImageJ v1.53t software (National Institutes of Health, Bethesda, MD, USA). Each marker results from the same experiment or parallel experiment where the gels were processed in parallel. Three independent experiments per marker were conducted.

MDA−MB−231 cells [6] = test: Western blot protein expression; conditions: MDA−MB−231, IC50, 72 h
Experimental: as §3

[7] = representative blot Figure S30G
[8] = representative blot Figure S30H

Structure (SMILES): Cc1c(C)c2cccnc2c2ncccc12.N[C@H]1CCCC[C@@H]1N.O=[N+]([O-])[O-].O=[N+]([O-])[O-].[OH][Pt+2][OH] [Pt^IV56MESS(OH)2, [Pt(5,6-dimethyl-1,10-phenanthroline)(1S,2S-diaminocyclohexane)(dihydroxy)](NO3)2]
- ROS production (HT29 cells [1]; HT29, 24 h): 244 RFU
- ROS production (HT29 cells [1]; HT29, 48 h): 318.56 RFU
- ROS production (HT29 cells [1]; HT29, 72 h): 368.11 RFU
- ROS production (MDA−MB−231 cells [2]; MDA−MB−231, 24 h): 292.21 RFU
- ROS production (MDA−MB−231 cells [2]; MDA−MB−231, 48 h): 360.12 RFU
- ROS production (MDA−MB−231 cells [2]; MDA−MB−231, 72 h): 386.28 RFU
- MtMp (mitochondrial membrane potential) (HT29 cells [3]; HT29, 24 h): 258.69 RFU
- MtMp (mitochondrial membrane potential) (HT29 cells [3]; HT29, 48 h): 172.39 RFU
- MtMp (mitochondrial membrane potential) (HT29 cells [3]; HT29, 72 h): 124.84 RFU
- MtMp (mitochondrial membrane potential) (MDA−MB−231 cells [4]; MDA−MB−231, 24 h): 190.39 RFU
- MtMp (mitochondrial membrane potential) (MDA−MB−231 cells [4]; MDA−MB−231, 48 h): 156.37 RFU
- MtMp (mitochondrial membrane potential) (MDA−MB−231 cells [4]; MDA−MB−231, 72 h): 92.94 RFU
- β-actin/GAPDH normalized to control (1) (HT29 cells [5]; representative blot Figure S28A): 1.209
- β-tubulin/GAPDH normalized to control (1) (HT29 cells [5]; representative blot Figure S28B): 0.7075
- α-tubulin/GAPDH normalized to control (1) (HT29 cells [5]; representative blot Figure S28C): 0.5719
- p-AKT/AKT/GAPDH normalized to control (1) (HT29 cells [5]; representative blot Figure S29A): 0.7209
- p-ERK/ERK/GAPDH normalized to control (1) (HT29 cells [5]; representative blot Figure S29B): 1.28
- p53/GAPDH normalized to control (1) (HT29 cells [5]; representative blot Figure S29C): 5.047
- p21/GAPDH normalized to control (1) (HT29 cells [5]; representative blot Figure S29D): 2.808
- Bax/GAPDH normalized to control (1) (HT29 cells [5]; representative blot Figure S30A): 3.498
- Bcl2/GAPDH normalized to control (1) (HT29 cells [5]; representative blot Figure S30B): 1.034
- Cyt C/GAPDH normalized to control (1) (HT29 cells [5]; representative blot Figure S30C): 7.663
- Procaspase 8/GAPDH normalized to control (1) (HT29 cells [5]; representative blot Figure S30D): 0.4035
- Cleaved BID/GAPDH normalized to control (1) (HT29 cells [5]; representative blot Figure S30E): 2.651
- Procaspase 9/GAPDH normalized to control (1) (HT29 cells [5]; representative blot Figure S30F): 0.4964
- Cleaved caspase 3/GAPDH normalized to control (1) (HT29 cells [5]; [7]): 1.746
- Procaspase 3/GAPDH normalized to control (1) (HT29 cells [5]; [7]): 1.297
- Cleaved PARP-1/GAPDH normalized to control (1) (HT29 cells [5]; [8]): 2.724
- PARP-1/GAPDH normalized to control (1) (HT29 cells [5]; [8]): 0.7172
- Beclin1/GAPDH normalized to control (1) (HT29 cells [5]; representative blot Figure S31A): 6.222
- ATG5/GAPDH normalized to control (1) (HT29 cells [5]; representative blot Figure S31B): 0.3221
- ATG16L1/GAPDH normalized to control (1) (HT29 cells [5]; representative blot Figure S31C): 4.523
- ATG9A/GAPDH normalized to control (1) (HT29 cells [5]; representative blot Figure S31D): 0.9044
- ATG4B/GAPDH normalized to control (1) (HT29 cells [5]; representative blot Figure S31E): 0.9223
- LC3B/GAPDH normalized to control (1) (HT29 cells [5]; representative blot Figure S31F): 1.976
- β-actin/GAPDH normalized to control (1) (MDA−MB−231 cells [6]; representative blot Figure S24A): 0.6671
- β-tubulin/GAPDH normalized to control (1) (MDA−MB−231 cells [6]; representative blot Figure S24B): 0.4289
- α-tubulin/GAPDH normalized to control (1) (MDA−MB−231 cells [6]; representative blot Figure S24C): 1.359
- p-AKT/AKT/GAPDH normalized to control (1) (MDA−MB−231 cells [6]; representative blot Figure S25A): 0.79
- p-ERK/ERK/GAPDH normalized to control (1) (MDA−MB−231 cells [6]; representative blot Figure S25B): 0.2828
- p53/GAPDH normalized to control (1) (MDA−MB−231 cells [6]; representative blot Figure S25C): 1.183
- p21/GAPDH normalized to control (1) (MDA−MB−231 cells [6]; representative blot Figure S25D): 1.053
- Bax/GAPDH normalized to control (1) (MDA−MB−231 cells [6]; representative blot Figure S26A): 2.6
- Bcl2/GAPDH normalized to control (1) (MDA−MB−231 cells [6]; representative blot Figure S26B): 0.8651
- Cytochrome C/GAPDH normalized to control (1) (MDA−MB−231 cells [6]; representative blot Figure S26C): 2.185
- Procaspase 8/GAPDH normalized to control (1) (MDA−MB−231 cells [6]; representative blot Figure S26D): 0.568
- Cleaved BID/GAPDH normalized to control (1) (MDA−MB−231 cells [6]; representative blot Figure S26E): 8.533
- Procaspase 9/GAPDH normalized to control (1) (MDA−MB−231 cells [6]; representative blot Figure S26F): 0.4557
- Procaspase 3/GAPDH normalized to control (1) (MDA−MB−231 cells [6]; representative blot Figure S26G): 0.9471
- PARP-1/GAPDH normalized to control (1) (MDA−MB−231 cells [6]; representative blot Figure S26H): 0.6182
- Beclin1/GAPDH normalized to control (1) (MDA−MB−231 cells [6]; representative blot Figure S27A): 0.9592
- ATG5/GAPDH normalized to control (1) (MDA−MB−231 cells [6]; representative blot Figure S27B): 0.8924
- ATG16L1/GAPDH normalized to control (1) (MDA−MB−231 cells [6]; representative blot Figure S27C): 1.456
- ATG9A/GAPDH normalized to control (1) (MDA−MB−231 cells [6]; representative blot Figure S27D): 0.8822
- ATG4B/GAPDH normalized to control (1) (MDA−MB−231 cells [6]; representative blot Figure S27E): 2.179
- LC3B/GAPDH normalized to control (1) (MDA−MB−231 cells [6]; representative blot Figure S27F): 0.7501
